Measured values taken from patent publication US10653672B2, “Myogenesis promotor, muscle atrophy inhibitor, medical composition and TAZ activator” (National University Corporation Tokyo Medical and Dental …, priority 2014, dated 2020).
Values joined by “and” are separate entries in the source; they are usually repeats but may differ in a detail not shown here. Equal values may be shown once.

Experiments:
[1] = test system: C2C12 cells; test: Muscle formation in C2C12 cells with or without TAZ knockdown (anti-MHC immunostaining, immunoblotting); format: cell-based, mouse; conditions: C2C12 cells with TAZ not knocked down (si Cont); 10 μM; 72 hours
Description: (2) C2C12 cells with TAZ knocked down by a method described in Sci Signal 2:ra59 (si TAZ) and C2C12 cells with TAZ not knocked down (si Cont) were cultured for 72 hours in a culture medium added with IBS008738 or DMSO at a concentration of 10 μM, respectively, and were immunostained with an anti-MHC antibody (the white portion in FIG. 3B, the bar is 100 μm). Further, immunoblotting was performed with an anti-MHC antibody and an anti-TAZ antibody (see FIG. 3C). […] Further, the expression of MHC was lost by the knockdown of TAZ.
Human TAZ and mouse TAZ were knocked down in MCF10A cells and C2C12 cells as described previously (Ikeda M et al., Sci Signal 2:ra59). The double strand (ds) RNAs used are human TAZ (Ambion s24789) and mouse TAZ (Dharmacon siRNA D-041057).

[2] = test system: TAZ; test: Quantitative real-time PCR, TAZ; format: cell-based, mouse; conditions: C2C12 cells, 10 μM; for Normarized mRNA abundance, TAZ: listed as IBS008738
Description: (§1) (1) Quantitative real-time PCR was performed with C2C12 cells immediately before the induction of muscle formation (0 h), and after culturing under differentiation condition in a culture medium added with IBS008738 or DMSO at a concentration of 10 μM for 24 hours (24 h) and 72 hours (72 h), respectively. […] The line and error bar indicate the average value and the standard error, **p<0.05, and ns refers to not significant.
(§2) The quantitative real-time PCR was performed with SYBER Green (Roche) and ABI7500 Realtime PCR system (Applied Biosystems).

[3] = test system: caveolin 3; test: Quantitative real-time PCR, caveolin 3; format: cell-based, mouse; conditions: C2C12 cells, 10 μM; for Normarized mRNA abundance, Caveolin3: listed as IBS008738
Description: as §1
Evaluation was also performed under the same condition on M-cadherin, calpain 1 and caveolin 3, which are myofusion markers. As a result, there was no increase in the degree of gene transcription in the case with IBS008738.
as §2

[4] = test system: TEAD reporter; test: Luciferase reporter assay, TEAD reporter; format: cell-based; conditions: Mus musculus, C2C12, 24 h, C2C12 cells expressing reporter and TAZ WT, differentiation medium 24 hours
Description: The effect and its degree on the activity of a reporter, derived from a transcription factor that interacts with TAZ in C2C12 cells, were evaluated. Specifically, C2C12 cells expressing luciferase reporters corresponding to MyoD, TEAD, SMAD and Pax3 and C2C12 cells expressing these luciferase reporters and TAZ were cultured in a culture medium added with IBS008738 or DMSO at a concentration of 10 μM, respectively. […] The line and the error bar indicate the average value and the standard error, *p<0.05, **p<0.01, ns refers to not significant.
Transfection of the luciferase reporters was performed to the C2C12 cells after being plated at 12-well plates (1×10^5 cells/well) and cultured overnight. As the luciferase reporters, pGL3 Myo-184- (MyoD-), 8×GT-IIC-δ51LucII- (TEAD-), 9×CAGA-MLP-(SMAD-), and p(PRS-1/-4)3- (Pax3-) were transfected to the cells alone or with TAZ. These reporter vectors were from Keiji Miyazawa (Yamanashi University), Hiroshi Sasaki (Kumamoto University) and Hiroki Kurihara (The University of Tokyo).
Immediately after the transfection, DMSO or IBS008738 was added at a concentration of 10 μM, respectively. After growing the cells to confluence, the cells were transferred to a differentiation medium with DMSO or IBS008738, and cultured for 24 hours before the luciferase assay.

[5] = test system: binding of MyoD to myogenin promoter; test: Chromatin immunoprecipitation, MyoD on myogenin promoter; format: cell-based, mouse; conditions: C2C12 cells; 10 μM; differentiation condition 24 hours; protein G sepharose without antibody; listed as IBS008738
Description: (§3) (1) Chromatin immunoprecipitation of MyoD, TEAD and Pax3 was performed on C2C12 cells that were cultured under differentiation condition for 24 hours in a culture medium added with IBS008738 or DMSO at a concentration of 10 μM. Myogenin, connective tissue growth factor (CTGF) and MyfS were detected by PCR, respectively. The immunoprecipitation with protein G sepharose was used as a control (Mock ChIP). […] The line and the error bar in the figure indicate the average value and the standard error, *p<0.05, ***p<0.001, ns refers to not significant.
(§4) The Chromatin immunoprecipitation was performed according to the following process. C2C12 cells were cultured to confluence, and then treated with IBS008738 or DMSO at a concentration of 10 μM in a differentiation medium for 24 hours. The cells were crosslinked in 1.42% (v/v) formaldehyde for 15 minutes, and the reaction was quenched by treating with 125 mM glycine for 5 minutes. […] Shearing was analyzed by agarose gel electrophoresis. […] The immunoprecipitated DNA fragments were isolated using Chelex-100 resin and diluted by 1:2.5 for quantitative PCR analysis. Input normalized relative abundance was determined.

[6] = test system: association of TEAD with CTGF; test: Chromatin immunoprecipitation, TEAD on CTGF promoter; format: cell-based, mouse; conditions: C2C12 cells; 10 μM; differentiation condition 24 hours; protein G sepharose without antibody; listed as IBS008738
Description: as §3, §4

[7] = test system: TAZ; test: Localization of TAZ in the cell by cell fraction; format: cell-based, mouse; conditions: C2C12 cells, 24 hours under differentiation condition
Description: Phosphorylation of TAZ and its localization in the cell are important factors in controlling the activity of TAZ. The localization of TAZ in the cell was examined by performing cell fraction of C2C12 cells after being cultured for 24 hours under differentiation condition in a medium added with IBS008738 or DMSO.

[8] = test system: A549 cells; test: Immunoblotting of EMT markers in A549 cells; format: cell-based, human
Description: (1) A431 cells, (epidermoid carcinoma), A549 cells (adenocarcinomic human alveolar basal epithelial cell) and HCT116 cells (human colon cancer) were treated with IBS008738 or DMSO, respectively, and evaluated by immunoblotting.
HEK293, A431, A549, HCT116, MCF7 and SW480 cells were cultured in Dulbecco's Modified Eagle Medium (DMEM) containing 10% fetal bovine serum (FBS), 10 mM HEPES-NaOH at pH 7.4, 100 U/ml penicillin and 100 mg/I streptomycin under 5% CO2 at 37° C.

Cc1ccc(-n2cnc(/N=C/N3CCOCC3)c2C(=O)c2ccccc2)cc1 [exemplary compound 1]
muscle formation [1]: promoted muscle formation | expression of TAZ (gene transcription) compared with DMSO ([2]; 24 h and 72 h): did not change | Normarized mRNA abundance, TAZ ([2]; differentiation condition 24 h): 0.88 and 0.94 | Normarized mRNA abundance, TAZ ([2]; differentiation condition 72 h): 1.44 and 1.36 and 1.41 | degree of gene transcription of caveolin 3 ([3]; 24 h and 72 h): no increase | Normarized mRNA abundance, Caveolin3 ([3]; differentiation condition 24 h): 0.14 and 0.13 | Normarized mRNA abundance, Caveolin3 ([3]; differentiation condition 72 h): 2.08 and 2.47 and 2.09 | fold induction at 10 µM [4]: 8.41 | Input %, myogenin-p, Mock ChIP [5]: 0.05% and 0.08% | Input %, CTGF-p, Mock ChIP [6]: 0.06% and 0.04% | effect on the localization of TAZ in the cell [7]: no effect | EMT markers (fibronectin, E-cadherin, N-cadherin and vimentin) compared with DMSO [8]: no significant difference
